These results are taken from the supplement of paper PMC10307832.

What all share (test): relative viability (nuclei count vs DMSO), 5 days (fraction); higher = more cells survive
Compound in the assay “NVP-TAE684 + Navitoclax”: COc1cc(N2CCC(N3CCN(C)CC3)CC2)ccc1Nc1ncc(Cl)c(Nc2ccccc2S(=O)(=O)C(C)C)n1 [NVP-TAE684] + CC1(C)CCC(c2ccc(Cl)cc2)=C(CN2CCN(c3ccc(C(=O)NS(=O)(=O)c4ccc(N[C@H](CCN5CCOCC5)CSc5ccccc5)c(S(=O)(=O)C(F)(F)F)c4)cc3)CC2)C1 [Navitoclax] (partner 0.5 µM)
In short, it runs like this: (§1)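 Lung cancer cell lines were seeded in 1536-well plates and dosed by pin tool the next day, with either a single drug or a fixed anchor-drug dose combined with five library-drug doses (not always all listed) spaced in √10 steps. Five days later, one step fixed the cells and stained their nuclei (final 0.05% Triton X-100, 1% formaldehyde, 1 ug/ml Hoechst), and nuclei were counted on 4× images. Relative viability is the nuclei count in treated wells divided by the count in vehicle wells, and each value is the median of duplicate plates.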

Compound in the assay “Vandetanib + Vorinostat”: COc1cc2/c(=N/c3ccc(Br)cc3F)nc[nH]c2cc1OCC1CCN(C)CC1 [Vandetanib] + O=C(CCCCCCC(=O)Nc1ccccc1)NO [Vorinostat] (partner 1 µM)
The procedure, abridged: as §1

Compound in the assay “NVP-TAE684 + Luminespib”: COc1cc(N2CCC(N3CCN(C)CC3)CC2)ccc1Nc1ncc(Cl)c(Nc2ccccc2S(=O)(=O)C(C)C)n1 [NVP-TAE684] + CCNC(=O)c1noc(-c2cc(C(C)C)c(O)cc2O)c1-c1ccc(CN2CCOCC2)cc1 [Luminespib] (partner 0.01 µM)
In short, it runs like this: as §1

Compound in the assay “NVP-TAE684 + Tozasertib”: COc1cc(N2CCC(N3CCN(C)CC3)CC2)ccc1Nc1ncc(Cl)c(Nc2ccccc2S(=O)(=O)C(C)C)n1 [NVP-TAE684] + Cc1cc(Nc2cc(N3CCN(C)CC3)nc(Sc3ccc(NC(=O)C4CC4)cc3)n2)n[nH]1 [Tozasertib] (partner 0.1 µM)
In short, it runs like this: as §1

Compound in the assay “NVP-TAE684 + Olaparib”: COc1cc(N2CCC(N3CCN(C)CC3)CC2)ccc1Nc1ncc(Cl)c(Nc2ccccc2S(=O)(=O)C(C)C)n1 [NVP-TAE684] + O=C(c1cc(Cc2n[nH]c(=O)c3ccccc23)ccc1F)N1CCN(C(=O)C2CC2)CC1 [Olaparib] (partner 8 µM)
The procedure, abridged:
as §1

As for NCI-H1975, the relative viability came out at 1.06 with NVP-TAE684 + Navitoclax (first compound 0.2 µM); 0.513 with NVP-TAE684 + Navitoclax (first compound 2 µM); 0.71 with Vandetanib + Vorinostat (first compound 0.02 µM); 0.646 with Vandetanib + Vorinostat (first compound 0.06325 µM); 0.709 with Vandetanib + Vorinostat (first compound 0.2 µM); 0.665 with Vandetanib + Vorinostat (first compound 0.6325 µM). Moreover, the relative viability came to 0.636 with Vandetanib + Vorinostat (first compound 2 µM); 0.23 in the assay with NVP-TAE684 + Luminespib (first compound 0.2 µM); 0.138 in the assay with NVP-TAE684 + Luminespib (first compound 0.6325 µM); 0.167 with NVP-TAE684 + Luminespib (first compound 2 µM); 1.01 with NVP-TAE684 + Tozasertib (first compound 0.2 µM); 0.732 with NVP-TAE684 + Tozasertib (first compound 0.6325 µM). For the same cell line, the relative viability in the assay with NVP-TAE684 + Tozasertib (first compound 2 µM) was determined as 0.206; with NVP-TAE684 + Olaparib (first compound 0.2 µM), 0.862; in the assay with NVP-TAE684 + Olaparib (first compound 0.6325 µM), 0.748; in the assay with NVP-TAE684 + Olaparib (first compound 2 µM) it was 0.288.

Consider NCI-H1993, for which the relative viability worked out at 0.791 in the assay with NVP-TAE684 + Navitoclax (first compound 0.6325 µM); 0.696 with NVP-TAE684 + Navitoclax (first compound 2 µM); 0.741 in the assay with Vandetanib + Vorinostat (first compound 0.06325 µM); 0.797 with Vandetanib + Vorinostat (first compound 0.2 µM); 0.639 with Vandetanib + Vorinostat (first compound 0.6325 µM); 0.566 in the assay with Vandetanib + Vorinostat (first compound 2 µM). The relative viability in the assay with NVP-TAE684 + Luminespib (first compound 0.6325 µM) was found to be 0.785; with NVP-TAE684 + Luminespib (first compound 2 µM), 0.499; with NVP-TAE684 + Tozasertib (first compound 0.2 µM), 0.626; in the assay with NVP-TAE684 + Tozasertib (first compound 0.6325 µM) it was 0.543; with NVP-TAE684 + Tozasertib (first compound 2 µM), 0.476; with NVP-TAE684 + Olaparib (first compound 0.2 µM), 1.11. For the same cell line, the relative viability turned out to be 1.09 in the assay with NVP-TAE684 + Olaparib (first compound 0.6325 µM) and 0.749 with NVP-TAE684 + Olaparib (first compound 2 µM).

Regarding NCI-H2009, the relative viability with NVP-TAE684 + Navitoclax (first compound 0.2 µM) is 1.2; with NVP-TAE684 + Navitoclax (first compound 0.6325 µM), 1.15; with NVP-TAE684 + Navitoclax (first compound 2 µM) it was 0.95; with Vandetanib + Vorinostat (first compound 0.02 µM) it was 0.724; in the assay with Vandetanib + Vorinostat (first compound 0.06325 µM), 0.638; with Vandetanib + Vorinostat (first compound 0.2 µM), 0.727. In addition, the relative viability came to 0.783 with Vandetanib + Vorinostat (first compound 0.6325 µM); 0.756 with Vandetanib + Vorinostat (first compound 2 µM); 0.925 in the assay with NVP-TAE684 + Luminespib (first compound 0.2 µM); 1.05 in the assay with NVP-TAE684 + Luminespib (first compound 0.6325 µM); 0.944 with NVP-TAE684 + Luminespib (first compound 2 µM); 0.77 with NVP-TAE684 + Tozasertib (first compound 0.2 µM). Also, the relative viability turned out to be 0.704 with NVP-TAE684 + Tozasertib (first compound 0.6325 µM); 0.376 in the assay with NVP-TAE684 + Tozasertib (first compound 2 µM); 0.657 in the assay with NVP-TAE684 + Olaparib (first compound 0.2 µM); 0.665 in the assay with NVP-TAE684 + Olaparib (first compound 0.6325 µM); 0.634 with NVP-TAE684 + Olaparib (first compound 2 µM).

For the cell line NCI-H2023, the relative viability with NVP-TAE684 + Navitoclax (first compound 0.2 µM) was 0.965; with NVP-TAE684 + Navitoclax (first compound 0.6325 µM), 1.04; with NVP-TAE684 + Navitoclax (first compound 2 µM), 0.775; with Vandetanib + Vorinostat (first compound 0.02 µM) it was 0.563; in the assay with Vandetanib + Vorinostat (first compound 0.06325 µM), 0.516; with Vandetanib + Vorinostat (first compound 0.6325 µM) it was 0.561. Moreover, the relative viability with Vandetanib + Vorinostat (first compound 2 µM) turned out to be 0.489; with NVP-TAE684 + Luminespib (first compound 0.2 µM) it was 0.792; with NVP-TAE684 + Luminespib (first compound 0.6325 µM), 0.828; with NVP-TAE684 + Luminespib (first compound 2 µM) it was 0.215; with NVP-TAE684 + Tozasertib (first compound 0.2 µM) it was 0.413; in the assay with NVP-TAE684 + Tozasertib (first compound 0.6325 µM), 0.332. Also, the relative viability with NVP-TAE684 + Tozasertib (first compound 2 µM) turned out to be 0.103; with NVP-TAE684 + Olaparib (first compound 0.2 µM) it was 0.587; with NVP-TAE684 + Olaparib (first compound 0.6325 µM), 0.518; with NVP-TAE684 + Olaparib (first compound 2 µM), 0.138.

In the case of NCI-H2085, the relative viability with NVP-TAE684 + Navitoclax (first compound 0.2 µM) was determined as 1.01; with NVP-TAE684 + Navitoclax (first compound 0.6325 µM) it was 1.06; with NVP-TAE684 + Navitoclax (first compound 2 µM), 0.874; in the assay with Vandetanib + Vorinostat (first compound 0.02 µM), 0.836; in the assay with Vandetanib + Vorinostat (first compound 0.06325 µM), 0.74; with Vandetanib + Vorinostat (first compound 0.2 µM), 0.66. Besides, the relative viability was found to be 0.773 in the assay with Vandetanib + Vorinostat (first compound 0.6325 µM); 0.777 with Vandetanib + Vorinostat (first compound 2 µM); 0.435 in the assay with NVP-TAE684 + Luminespib (first compound 0.2 µM); 0.39 with NVP-TAE684 + Luminespib (first compound 0.6325 µM); 0.294 with NVP-TAE684 + Luminespib (first compound 2 µM); 0.803 with NVP-TAE684 + Tozasertib (first compound 0.2 µM). Moreover, the relative viability with NVP-TAE684 + Tozasertib (first compound 0.6325 µM) was 0.781; in the assay with NVP-TAE684 + Tozasertib (first compound 2 µM), 0.379; in the assay with NVP-TAE684 + Olaparib (first compound 0.2 µM), 0.819; in the assay with NVP-TAE684 + Olaparib (first compound 0.6325 µM) it was 0.754; with NVP-TAE684 + Olaparib (first compound 2 µM), 0.714.

For the cell line NCI-H2087, the relative viability with NVP-TAE684 + Navitoclax (first compound 0.2 µM) is 1.11; with NVP-TAE684 + Navitoclax (first compound 0.6325 µM) it was 1.17; with NVP-TAE684 + Navitoclax (first compound 2 µM), 0.766; with Vandetanib + Vorinostat (first compound 0.02 µM), 0.755; in the assay with Vandetanib + Vorinostat (first compound 0.06325 µM) it was 0.604; with Vandetanib + Vorinostat (first compound 0.2 µM), 0.657. For the same cell line, the relative viability was 0.614 with Vandetanib + Vorinostat (first compound 0.6325 µM); 0.922 in the assay with Vandetanib + Vorinostat (first compound 2 µM); 0.146 with NVP-TAE684 + Luminespib (first compound 0.2 µM); 0.205 with NVP-TAE684 + Luminespib (first compound 0.6325 µM); 0.151 with NVP-TAE684 + Luminespib (first compound 2 µM); 0.22 with NVP-TAE684 + Tozasertib (first compound 0.2 µM). Besides, the relative viability was found to be 0.262 in the assay with NVP-TAE684 + Tozasertib (first compound 0.6325 µM); 0.166 with NVP-TAE684 + Tozasertib (first compound 2 µM); 0.646 in the assay with NVP-TAE684 + Olaparib (first compound 0.2 µM); 0.598 in the assay with NVP-TAE684 + Olaparib (first compound 0.6325 µM); 0.503 with NVP-TAE684 + Olaparib (first compound 2 µM).

Take NCI-H2126: the relative viability in the assay with NVP-TAE684 + Navitoclax (first compound 0.2 µM) turned out to be 0.951; with NVP-TAE684 + Navitoclax (first compound 0.6325 µM), 0.84; with NVP-TAE684 + Navitoclax (first compound 2 µM), 0.621; with Vandetanib + Vorinostat (first compound 0.02 µM) it was 0.801; in the assay with Vandetanib + Vorinostat (first compound 0.06325 µM), 0.736; with Vandetanib + Vorinostat (first compound 0.2 µM), 0.703. Besides, the relative viability with Vandetanib + Vorinostat (first compound 0.6325 µM) is 0.702; with Vandetanib + Vorinostat (first compound 2 µM) it was 0.699; with NVP-TAE684 + Luminespib (first compound 0.2 µM) it was 0.94; with NVP-TAE684 + Luminespib (first compound 0.6325 µM), 0.845; in the assay with NVP-TAE684 + Luminespib (first compound 2 µM), 0.398; in the assay with NVP-TAE684 + Tozasertib (first compound 0.2 µM), 0.96. In addition, the relative viability turned out to be 0.764 with NVP-TAE684 + Tozasertib (first compound 0.6325 µM), 0.407 in the assay with NVP-TAE684 + Tozasertib (first compound 2 µM), 0.88 with NVP-TAE684 + Olaparib (first compound 0.2 µM) and 0.712 with NVP-TAE684 + Olaparib (first compound 2 µM).

As for NCI-H2170, the relative viability was 0.56 with NVP-TAE684 + Navitoclax (first compound 0.2 µM); 0.585 in the assay with NVP-TAE684 + Navitoclax (first compound 0.6325 µM); 0.591 with NVP-TAE684 + Navitoclax (first compound 2 µM); 0.84 with Vandetanib + Vorinostat (first compound 0.02 µM); 0.829 in the assay with Vandetanib + Vorinostat (first compound 0.06325 µM); 0.816 with Vandetanib + Vorinostat (first compound 0.2 µM). Further, the relative viability came out at 0.767 with Vandetanib + Vorinostat (first compound 0.6325 µM); 0.813 with Vandetanib + Vorinostat (first compound 2 µM); 0.747 in the assay with NVP-TAE684 + Luminespib (first compound 0.2 µM); 0.618 with NVP-TAE684 + Luminespib (first compound 0.6325 µM); 0.663 with NVP-TAE684 + Luminespib (first compound 2 µM); 0.735 with NVP-TAE684 + Tozasertib (first compound 0.2 µM). Besides, the relative viability with NVP-TAE684 + Tozasertib (first compound 0.6325 µM) is 0.632; with NVP-TAE684 + Tozasertib (first compound 2 µM), 0.543; in the assay with NVP-TAE684 + Olaparib (first compound 0.2 µM) it was 0.583; with NVP-TAE684 + Olaparib (first compound 0.6325 µM), 0.58; with NVP-TAE684 + Olaparib (first compound 2 µM), 0.518.

Turning to NCI-H2228, the relative viability with NVP-TAE684 + Navitoclax (first compound 0.2 µM) was determined as 0.443; with NVP-TAE684 + Navitoclax (first compound 0.6325 µM), 0.421; with NVP-TAE684 + Navitoclax (first compound 2 µM), 0.129; with Vandetanib + Vorinostat (first compound 0.02 µM), 0.592; in the assay with Vandetanib + Vorinostat (first compound 0.06325 µM), 0.474; with Vandetanib + Vorinostat (first compound 0.2 µM), 0.747. For the same cell line, the relative viability with Vandetanib + Vorinostat (first compound 0.6325 µM) was found to be 1.04; with Vandetanib + Vorinostat (first compound 2 µM), 0.679; with NVP-TAE684 + Luminespib (first compound 0.2 µM) it was 0.142; in the assay with NVP-TAE684 + Luminespib (first compound 0.6325 µM) it was 0.116; with NVP-TAE684 + Luminespib (first compound 2 µM), 0.0834; in the assay with NVP-TAE684 + Tozasertib (first compound 0.2 µM) it was 0.196. Besides, the relative viability with NVP-TAE684 + Tozasertib (first compound 0.6325 µM) came to 0.129; with NVP-TAE684 + Tozasertib (first compound 2 µM), 0.136; in the assay with NVP-TAE684 + Olaparib (first compound 0.2 µM) it was 0.36; with NVP-TAE684 + Olaparib (first compound 0.6325 µM) it was 0.384; with NVP-TAE684 + Olaparib (first compound 2 µM), 0.109.
